Measurements from patent US20040235163A1, “Myocardial cell apoptosis inhibitors” (priority 2001, published 2004).

How the values were obtained:
[1] = test system: neonatal rat ventricular myocytes (NRVMs); assay: H2O2-induced apoptosis in cultured cardiac myocytes, flow cytometry (Sub-G1 peak); assay type: cell-based
[2] = test system: neonatal rat ventricular myocytes (NRVMs); assay: Calcium ionophore A23187-induced apoptosis in cultured cardiac myocytes, flow cytometry; assay type: cell-based
Experimental: Cultured neonatal rat ventricular myocytes (NRVMs) were provided as cardiac myocytes used in the experiments. More specifically, hearts were extracted from 0- to 1-day-old neonatal rats (Wister, pregnant rats were purchased from Chubu Shizai). The ventricles of each heart were then treated with collagenase Type 2 (Worthington) and pancreatin (Sigma) to enzymatically isolate cardiac myocytes (collagenase 0.5 mg/ml, pancreatin 0.6 mg/ml, 4 treatments), followed by primary culture. After the enzymatically collected cells were seeded in plates and allowed to stand for 30 minutes, non-adhesive cells were collected to remove fibroblasts. The resulting cardiac myocytes were seeded at a density of 1×10^5 cells/cm^2 on 6-well plates or 75 cm^2 flasks pre-coated with 1% gelatin and then cultured at 37° C. under 5% CO2 for 48 hours in a medium consisting of DMEM/Medium 199 (4:1), 10% fetal bovine serum (FBS, Sigma), 0.1 mM bromodeoxyuridine (BrdU, Roche), penicillin (50 units/ml, GIBCO) and streptomycin (50 μg/ml, GIBCO). Culturing was carried out in a CO2 incubator under conditions of 37° C. The medium was then replaced with a serum-free medium which had been prepared from the same ingredients other than FBS and supplemented with insulin-transferrin-selenium (ITS, GIBCO). These cells were provided for experiments 24 hours after replacement with the serum-free medium. After immunocytostaining with a cardiac myocytespecific antibody (α-actinin antibody), the percentage of cardiac myocytes was measured by microscopy to confirm that 90% or more of the cells were cardiac myocytes at that stage.
Flow cytometry analysis was performed using a Coulter EPICSXL and a software package specific for this purpose. After collection of floating cardiac myocytes from the cell culture (1×10^6 cells/well), adhered cardiac myocytes were trypsinated and collected in the same tube. […] Propidium iodide (250 μL, 25 μg/ml, Sigma) was added to and suspended well in the cell suspension, which was then allowed to stand at room temperature for 20 minutes or more and analyzed by flow cytometry. Cells showing a Sub-G1 peak in nuclear staining with propidium iodide were counted as apoptotic cells to calculate the percentage of cells showing a Sub-G1 peak relative to the total cell count measured (1×10^4 cells). The calculated percentage was defined as the percentage of apoptotic cells.
(§1) Calcium ionophore A23187 (Sigma) was added at a final concentration of 5×10^−6 M to the cell culture of cardiac myocytes prepared as described in Example 1. The cells were cultured as described in Example 1 and analyzed to determine the percentage of apoptotic cells. […]

cardiac myocytes = assay: Apoptosis in cardiac myocytes measured as in Examples 1 and 2, modulators of the nicorandil effect; assay type: cell-based, rat
Experimental: Flow cytometry analysis was performed using a Coulter EPICSXL and a software package specific for this purpose. After collection of floating cardiac myocytes from the cell culture (1×10^6 cells/well), adhered cardiac myocytes were trypsinated and collected in the same tube. After centrifugation, the pellet was washed with PBS, supplemented with 70% EtOH, and then allowed to stand at room temperature for 20 minutes or more to fix the cells. After fixation, the cells were washed with PBS, re-suspended in 1 ml PBS and then reacted with 50 μL RNase (1 mg/ml, Sigma) at 37° C. for 40 minutes. After the cells were allowed to stand at room temperature (if necessary), they were washed with PBS and suspended in about 250 μL PBS to prepare a cell suspension. Propidium iodide (250 μL, 25 μg/ml, Sigma) was added to and suspended well in the cell suspension, which was then allowed to stand at room temperature for 20 minutes or more and analyzed by flow cytometry. Cells showing a Sub-G1 peak in nuclear staining with propidium iodide were counted as apoptotic cells to calculate the percentage of cells showing a Sub-G1 peak relative to the total cell count measured (1×10^4 cells). The calculated percentage was defined as the percentage of apoptotic cells.
H2O2 (Sigma) was added at a final concentration of 1×10^−4 M to the cell culture of cardiac myocytes prepared as described above (final density: 1×10^6 cells/2 ml/well), followed by culturing for 16 hours in a CO2 incubator. The cells were collected and analyzed by flow cytometory to determine the percentage of apoptotic cells. Nicorandil was also added at a final concentration of 1×10^−4 M immediately before H2O2 addition. […]
as §1
Apoptosis in cardiac myocytes was measured as described in Examples 1 and 2.

[3] = test system: Bad protein (phospho-Bad Ser-136); assay: Western blot analysis of Bad phosphorylation in apoptotic cardiac myocytes; assay type: cell-based, rat; conditions: pre-treatment with nicorandil, apoptotic cells induced by H2O2 or A23187
Experimental: Both floating and adhered cardiac myocytes were collected and lysed at 4° C. for 1 hour in a lysis buffer consisting of 20 mM Tris-HCl (pH 7.5), 2 mM EDTA, 3 mM EGTA, 2 mM DTT, 250 mM sucrose, 1% Triton X-100, 10 μg/ml aprotinin, 10 μM leupeptin and 0.1 mM PMSF. The resulting cell lysate was measured for its protein level by the Bradford method, solubilized in 2× sample buffer and then boiled at 95° C. for 3 minutes. After each lane was loaded with 50 μg sample and electrophoresed on a 12.5% SDS-polyacrylamide gel, the gel was transferred to a PVDF membrane. The blots were blocked overnight in 3% BSA/0.1% Tween-20 in PBS and then detected with the following primary antibodies: rabbit polyclonal Bcl-2 antibody (Pharmingen), rabbit polyclonal Bax antibody (Pharmingen), mouse monoclonal p53 antibody (Calbiochem), mouse monoclonal poly(ADP-ribose) polymerase (PARP) antibody (Clontech) and rabbit polyclonal CPP32 antibody (Santa Cruz). […]
Both floating and adhered cardiac myocytes were collected from 75 cm^2 flasks and lysed in 0.5 mL lysis buffer consisting of 10 mM Tris-HCl (pH 7.4), 1 mM EDTA, 1 mM EGTA (pH 8.0), 150 mM NaCl, 1% Triton X-100, 0.2 mM sodium ortho-vanadate, 0.2 mM PMSF and 0.5% NP-40. […] The total Bad content was determined by probing with a rabbit polyclonal Bad antibody (New England Biolabs). […]

[4] = test system: Neonatal rat cardiac myocytes; assay: JC-1 mitochondrial membrane potential, confocal microscopy, H2O2 stimulation; assay type: cell-based; conditions: pre-treatment with nicorandil 100 μmol/L; H2O2 200 μmol/L, 20 min
Text: A fluorescent probe JC-1, a detection reagent for mitochondrial membrane potential, was used to confirm that nicorandil inhibited apoptosis in cardiac myocytes stimulated by H2O2. In most cases of cellular apoptosis, cytochrome C is translocated from mitochondrial membrane to cytosol, during which loss of mitochondrial membrane potential is known. Since JC-1 is a cationic fluorescent substance, it easily enters cells and emits red fluorescence (λem=590 nm) in normal cell mitochondria through formation of polymers called J-aggregates. […] Neonatal rat cardiac myocytes were seeded at a density of 1×10^6 cells/well in 35 mm dishes with glass bottoms (IWAKI) and cultured at 37° C. for 10 minutes in serum-free DMEM/F12 medium containing 10 μg/mL JC-1 (Wako Pure Chemical Industries, Ltd.). The cells on the dishes were observed using a confocal laser scanning microscope and a 20× objective lens. Fluorescence was excited by the 488 nm line of an argon laser and the 543 nm line of a helium-neon laser.

[5] = test system: animal models of ischemic reperfusion; conditions: cited from earlier work

CCCCCC(O)CCCC(=O)O (stereo not drawn) [5-hydroxydecanoate]
effect on the anti-apoptotic effect of nicorandil (H2O2-induced apoptosis) ([1]; 5-hydroxydecanoate 5×10^−4 M + nicorandil 1×10^−4 M + H2O2 1×10^−4 M): partially blocked | effect on the anti-apoptotic effect of nicorandil (A23187-induced apoptosis) ([2]; 5-hydroxydecanoate 5×10^−4 M + nicorandil 1×10^−4 M + A23187 5×10^−6 M): completely blocked

ZVAD
block of the pro-apoptosis effect of A23187 ([2]; ZVAD 1×10^−5 M, A23187 5×10^−6 M): around 50%

OO [H2O2, hydrogen peroxide]
percentage of apoptotic cells ([1]; 1×10^−4 M H2O2, 16 hours, 10% or less in the absence of H2O2): more than 70%

COc1ccc2c(c[n+](C)c3c4cc5c(cc4ccc23)OCO5)c1OC [chelerythrine]
effect on the anti-apoptotic effect of nicorandil (cardiac myocytes; chelerythrine final concentration 10^−6 M): completely disappeared

COc1ccc(Cl)cc1C(=O)NCCc1ccc(S(=O)(=O)NC(=O)NC2CCCCC2)cc1 [glibenclamide]
effect on the anti-apoptotic effect of nicorandil (H2O2-induced apoptosis) ([1]; glibenclamide 1×10^−5 M + nicorandil + H2O2 1×10^−4 M): completely blocked

CNc1ccc2oc(C[C@H]3O[C@@]4(CC[C@H]3C)O[C@H]([C@H](C)C(=O)c3ccc[nH]3)[C@H](C)C[C@H]4C)nc2c1C(=O)O [A23187]
induction of apoptosis ([2]; A23187 5×10^−6 M): induced apoptosis significantly

nitroprusside
effect on the anti-apoptotic effect of nicorandil (cardiac myocytes; nitroprusside final concentration 10^−4 M): enhanced

O=C(NCCO[N+](=O)[O-])c1cccnc1 [nicorandil, N-(2-hydroxyethyl)nicotinamide nitrate ester]
inhibition of H2O2-induced apoptosis ([1]; 1×10^−4 M nicorandil added immediately before 1×10^−4 M H2O2, 16 hours): significantly inhibited to the control level | inhibition at 100 µM ([1]; Rattus norvegicus, Ventricular myocyte, pre-treatment with nicorandil 10^−4 M, read-out: inhibition of NRVM apoptosis induced by H2O2): 60% | inhibition at 100 µM ([2]; Rattus norvegicus, Ventricular myocyte, nicorandil 1×10^−4 M, A23187 5×10^−6 M, read-out: block / inhibition of apoptosis induced by calcium ionophore A23187): ~50% | phosphorylation level of Bad [3]: increase the phosphorylation level of Bad | JC-1 green fluorescence (loss of mitochondrial membrane potential) upon H2O2 stimulation [4]: inhibit such green fluorescence | infarct size [5]: decrease infarct size

COC(=O)[C@@H](N)CCCNC(=N)N[N+](=O)[O-] [L-NAME, N^G-nitro L-arginine methyl ester]
effect on the anti-apoptotic effect of nicorandil (cardiac myocytes; L-NAME final concentration 10^−6 M): partially blocked
